# Patent publication US20250305953A1, “LIGHT-EMITTING RADICAL CATION PROBE IN SITU GENERATED BY ACID INDUCTION, AND PREPARATION THEREFOR AND APPLICATION THEREOF” (SOUTH CHINA UNIVERSITY OF TECHNOLOGY, priority 2022, published 2025)
# How the values were obtained:
# [1] = H&E staining and hepatorenal index analysis; format: in vivo, Balb/c nude mice
# Method: 2 hours after gavage, blood (approximately 500 μL) was collected through the ocular fundus venous plexus and stored in an icebox 20 minutes before centrifugation at 3,500 r.p.m. to prevent clotting. Roche Cobas E602 electrochemical light-emitting immunoassay analyzer was used to test and analyze total protein (TP), albumin (ALB), alanine aminotransferase (ALT), aspartate aminotransferase (AST), creatinine (CREA), carbon dioxide (CO2), uric acid (UA), urea (UREA) in serum samples (200 μL).
# All tissues were fixed with 4% PFA, dehydrated with an ethanol solution, embedded with paraffin, and cut into […] coronal and low-temperature sections for hematoxylin and eosin (H&E) staining. Paraffin was removed by xylene washing. Then, the sections were incubated with hematoxylin and eosin for 4 min and washed with distilled water. Stained sections were examined by using the Nikon ECLIPSE 80i microscope.
# [2] = In vivo imaging with laparotomy; set-up: species or system Balb/c nude mice; conditions: dissected after imaging
# Excerpt: The mice were anesthetized beforehand, and the gastrointestinal tract was then exposed by a single incision in the abdomen of the mice.
# [3] = compared with P3^⋅+
# Method: Animal experiments: male eight-week-old Balb/c nude mice were purchased from Guangzhou Yancheng Biotechnology Co. Ltd. The mice were adaptively housed for one week and fasted for 24 hours before gavage.
# Subsequently, the in vivo fluorescence imaging was performed at room temperature by using the small animal imaging instrument Bruker MI SE 721. The imaging was performed every 10 min until 60 min, every 30 min until 120 min, and then every 60 min until 180 min. Two imaging steps were performed sequentially: 590 nm/700 nm, with exposure time being 60 s, and white light exposure time being 0.175 s. […] In the same conditions, quantitative analysis of fluorescence imaging was performed by using the instrument Bruker MI SE 721. The quantitative analysis of fluorescence was performed on the gastric signals in the mice at all the time points above. The mean value of fluorescence at three sites in the gastric region at 0 min was taken as I0, and the mean value of fluorescence at three sites in the gastric region at other time points was taken as I. A semi-quantitative analysis of the change of the gastric signals in the mice was performed by means of the fluorescence ratio (I/I0). In addition, the mice were euthanized at different time points, and the gastrointestinal tracts of the mice were dissected out for white light photography.
# [4] = Method: 30 μL of DMSO stock solution (200 mM) of the compound P6 (4-(piperidine-1-methylene)-2,5-dimethyl-3-hydroxymethylene-^1H-pyrrole) was added to 2970 μL of the acidic buffer solution (pH=2.0-3.0).
# After being mixed well, tests of the time-dependent ultraviolet-visible absorption spectrum and fluorescence spectrum were performed (2 h).
"biocompatibility ([1]; generated in situ in the stomach, conclusion)",fluorescence of visceral organs other than the gastrointestinal tract [2],Compound,"H&E histology of major visceral organs (stomach, liver, spleen, kidney, lung, heart) ([1]; 2 hours after gavage of 1.5 mg in 70 μL water, compared with control group)",gastrointestinal imaging effect [3],"time for conversion into the radical cation ([4]; acidic buffer solution pH=2.0-3.0, atmosphere of air)",conversion efficiency ([4]; compared with P3),light emission ([4]; compared with P3)
good biocompatibility,without any fluorescence signal,"Cc1cc(CO)c(C)n1-c1ccccc1 [P3, 2,5-dimethyl-3-hydroxymethylene-1-phenyl-^1H-pyrrole]",no obvious injury or inflammatory lesion,,,,
,,"Cc1[nH]c(C)c(CN2CCCCC2)c1CO [P6, 4-(piperidine-1-methylene)-2,5-dimethyl-3-hydroxymethylene-^1H-pyrrole]",,not as good as that of P3^⋅+,≤ 30 min,lower conversion efficiency,weaker light emission
